{"source": "patent US11970473B2", "about": "“Nootkatone derivatives and methods of using the same” (Arkansas State University—Jonesboro, priority 2021, dated 2024)", "key": {"S. aureus strains": {"test_system": "S. aureus strains", "experiment": "MIC, summary over S. aureus strains", "type": "cell-based", "settings": "Staphylococcus aureus; lowest MIC over S. aureus strains; read-out: minimum inhibitory concentration (MIC) value as low as", "procedure": "Minimal inhibitory concentration (MIC) assay The standard microdilution method recommended by the Clinical and Laboratory Standards Institute (CLSI) was used to determine the MIC of the antibiotics. The starting concentration of compounds was 50 μg/ml and 2-fold dilution was done down the 96 honeycomb well plate column. The MIC assay was conducted in triplicates."}, "NCI-60 cancer cell lines": {"test_system": "NCI-60 cancer cell lines", "experiment": "NCI-60 cancer screen (whole panel)", "type": "cell-based, human", "settings": "10 μM"}, "CCRF-CEM": {"test_system": "CCRF-CEM", "experiment": "NCI-60 cancer screen", "type": "cell-based, human", "settings": "Leukemia, 10 μM"}, "HL-60(TB)": {"test_system": "HL-60(TB)", "experiment": "NCI-60 cancer screen", "type": "cell-based, human", "settings": "Leukemia, 10 μM"}, "K-562": {"test_system": "K-562", "experiment": "NCI-60 cancer screen", "type": "cell-based, human", "settings": "K-562, Leukemia; 10 μM"}, "MOLT-4": {"test_system": "MOLT-4", "experiment": "NCI-60 cancer screen", "type": "cell-based, human", "settings": "MOLT-4, Leukemia; 10 μM"}, "NCI-H226": {"test_system": "NCI-H226", "experiment": "NCI-60 cancer screen", "type": "cell-based, human", "settings": "NCI-H226, Non-Small Cell Lung Cancer; 10 μM"}, "NCI-H322M": {"test_system": "NCI-H322M", "experiment": "NCI-60 cancer screen", "type": "cell-based, human", "settings": "Non-Small Cell Lung Cancer, 10 μM"}, "COLO 205": {"test_system": "COLO 205", "experiment": "NCI-60 cancer screen", "type": "cell-based, human", "settings": "COLO 205, Colon Cancer; 10 μM"}, "HCC-2998": {"test_system": "HCC-2998", "experiment": "NCI-60 cancer screen", "type": "cell-based, human", "settings": "HCC-2998, Colon Cancer; 10 μM"}, "HT29": {"test_system": "HT29", "experiment": "NCI-60 cancer screen", "type": "cell-based, human", "settings": "HT29, Colon Cancer; 10 μM"}, "KM12": {"test_system": "KM12", "experiment": "NCI-60 cancer screen", "type": "cell-based, human", "settings": "KM12, Colon Cancer; 10 μM"}, "SW-620": {"test_system": "SW-620", "experiment": "NCI-60 cancer screen", "type": "cell-based, human", "settings": "SW-620, Colon Cancer; 10 μM"}, "SNB-19": {"test_system": "SNB-19", "experiment": "NCI-60 cancer screen", "type": "cell-based, human", "settings": "SNB-19, CNS Cancer; 10 μM"}, "SNB-75": {"test_system": "SNB-75", "experiment": "NCI-60 cancer screen", "type": "cell-based, human", "settings": "SNB-75, CNS Cancer; 10 μM"}, "U251": {"test_system": "U251", "experiment": "NCI-60 cancer screen", "type": "cell-based, human", "settings": "U251, CNS Cancer; 10 μM"}, "MALME-3M": {"test_system": "MALME-3M", "experiment": "NCI-60 cancer screen", "type": "cell-based, human", "settings": "Melanoma, 10 μM"}, "M14": {"test_system": "M14", "experiment": "NCI-60 cancer screen", "type": "cell-based, human", "settings": "M14, Melanoma; 10 μM"}, "SK-MEL-28": {"test_system": "SK-MEL-28", "experiment": "NCI-60 cancer screen", "type": "cell-based, human", "settings": "SK-MEL-28, Melanoma; 10 μM"}, "IGROV1": {"test_system": "IGROV1", "experiment": "NCI-60 cancer screen", "type": "cell-based, human", "settings": "IGROV1, Ovarian Cancer; 10 μM"}, "OVCAR-3": {"test_system": "OVCAR-3", "experiment": "NCI-60 cancer screen", "type": "cell-based, human", "settings": "OVCAR-3, Ovarian Cancer; 10 μM"}, "OVCAR-4": {"test_system": "OVCAR-4", "experiment": "NCI-60 cancer screen", "type": "cell-based, human", "settings": "OVCAR-4, Ovarian Cancer; 10 μM"}, "SK-OV-3": {"test_system": "SK-OV-3", "experiment": "NCI-60 cancer screen", "type": "cell-based, human", "settings": "SK-OV-3, Ovarian Cancer; 10 μM"}, "786-0": {"test_system": "786-0", "experiment": "NCI-60 cancer screen", "type": "cell-based, human", "settings": "786-0, Renal Cancer; 10 μM"}, "A498": {"test_system": "A498", "experiment": "NCI-60 cancer screen", "type": "cell-based, human", "settings": "A498, Renal Cancer; 10 μM"}, "ACHN": {"test_system": "ACHN", "experiment": "NCI-60 cancer screen", "type": "cell-based, human", "settings": "Renal Cancer, 10 μM"}, "CAKI-1": {"test_system": "CAKI-1", "experiment": "NCI-60 cancer screen", "type": "cell-based, human", "settings": "CAKI-1, Renal Cancer; 10 μM"}, "RXF 393": {"test_system": "RXF 393", "experiment": "NCI-60 cancer screen", "type": "cell-based, human", "settings": "RXF 393, Renal Cancer; 10 μM"}, "SN12C": {"test_system": "SN12C", "experiment": "NCI-60 cancer screen", "type": "cell-based, human", "settings": "Renal Cancer, 10 μM"}, "PC-3": {"test_system": "PC-3", "experiment": "NCI-60 cancer screen", "type": "cell-based, human", "settings": "PC-3, Prostate Cancer; 10 μM"}, "MCF7": {"test_system": "MCF7", "experiment": "NCI-60 cancer screen", "type": "cell-based, human", "settings": "MCF7, Breast Cancer; 10 μM"}, "MDA-MB-231/ATCC": {"test_system": "MDA-MB-231/ATCC", "experiment": "NCI-60 cancer screen", "type": "cell-based, human", "settings": "Breast Cancer, 10 μM"}, "HS 578T": {"test_system": "HS 578T", "experiment": "NCI-60 cancer screen", "type": "cell-based, human", "settings": "Breast Cancer, 10 μM"}, "T-47D": {"test_system": "T-47D", "experiment": "NCI-60 cancer screen", "type": "cell-based, human", "settings": "Breast Cancer, 10 μM"}, "MDA-MB-468": {"test_system": "MDA-MB-468", "experiment": "NCI-60 cancer screen", "type": "cell-based, human", "settings": "MDA-MB-468, Breast Cancer; 10 μM"}}}
{"compound": "C=C(C)[C@@H]1CC=C2c3sc(-c4ccc(O)cc4)nc3C[C@@H](C)[C@]2(C)C1", "note": "[Compound 15, 4-[(5R,5aS,7R)-7-isopropenyl-5,5a-dimethyl-5,6,7,8-tetrahydro-4H-benzo[g][1,3]benzothiazol-2-yl]phenol]", "values": [{"measurement": "MIC", "setting": "S. aureus strains", "value": 6.25, "unit": "µg/mL"}, {"measurement": "Growth Percent, Delta", "setting": "NCI-60 cancer cell lines; delta over panel", "value": 16.54, "unit": "%"}, {"measurement": "Growth Percent, Mean", "setting": "NCI-60 cancer cell lines; mean over panel", "value": 100.94, "unit": "%"}, {"measurement": "Growth Percent, Range", "setting": "NCI-60 cancer cell lines; range over panel", "value": 34.01, "unit": "%"}, {"measurement": "Growth Percent", "setting": "CCRF-CEM", "value": 99.49, "unit": "%"}, {"measurement": "Growth Percent", "setting": "HL-60(TB)", "value": 100.82, "unit": "%"}, {"measurement": "Growth Percent", "setting": "K-562", "value": 92.07, "unit": "%"}, {"measurement": "Growth Percent", "setting": "MOLT-4", "value": 105.32, "unit": "%"}, {"measurement": "Growth Percent", "setting": "NCI-H226", "value": 94.10, "unit": "%"}, {"measurement": "Growth Percent", "setting": "NCI-H322M", "value": 102.27, "unit": "%"}, {"measurement": "Growth Percent", "setting": "COLO 205", "value": 118.41, "unit": "%"}, {"measurement": "Growth Percent", "setting": "HCC-2998", "value": 100.46, "unit": "%"}, {"measurement": "Growth Percent", "setting": "HT29", "value": 105.86, "unit": "%"}, {"measurement": "Growth Percent", "setting": "KM12", "value": 103.49, "unit": "%"}, {"measurement": "Growth Percent", "setting": "SW-620", "value": 103.38, "unit": "%"}, {"measurement": "Growth Percent", "setting": "SNB-19", "value": 93.47, "unit": "%"}, {"measurement": "Growth Percent", "setting": "SNB-75", "value": 87.74, "unit": "%"}, {"measurement": "Growth Percent", "setting": "U251", "value": 102.73, "unit": "%"}, {"measurement": "Growth Percent", "setting": "MALME-3M", "value": 99.38, "unit": "%"}, {"measurement": "Growth Percent", "setting": "M14", "value": 98.96, "unit": "%"}, {"measurement": "Growth Percent", "setting": "SK-MEL-28", "value": 106.43, "unit": "%"}, {"measurement": "Growth Percent", "setting": "IGROV1", "value": 102.22, "unit": "%"}, {"measurement": "Growth Percent", "setting": "OVCAR-3", "value": 102.89, "unit": "%"}, {"measurement": "Growth Percent", "setting": "OVCAR-4", "value": 95.29, "unit": "%"}, {"measurement": "Growth Percent", "setting": "SK-OV-3", "value": 109.13, "unit": "%"}, {"measurement": "Growth Percent", "setting": "786-0", "value": 101.31, "unit": "%"}, {"measurement": "Growth Percent", "setting": "A498", "value": 107.24, "unit": "%"}, {"measurement": "Growth Percent", "setting": "ACHN", "value": 100.09, "unit": "%"}, {"measurement": "Growth Percent", "setting": "CAKI-1", "value": 99.88, "unit": "%"}, {"measurement": "Growth Percent", "setting": "RXF 393", "value": 113.93, "unit": "%"}, {"measurement": "Growth Percent", "setting": "SN12C", "value": 94.92, "unit": "%"}, {"measurement": "Growth Percent", "setting": "PC-3", "value": 94.38, "unit": "%"}, {"measurement": "Growth Percent", "setting": "MCF7", "value": 89.98, "unit": "%"}, {"measurement": "Growth Percent", "setting": "MDA-MB-231/ATCC", "value": 101.25, "unit": "%"}, {"measurement": "Growth Percent", "setting": "HS 578T", "value": 100.94, "unit": "%"}, {"measurement": "Growth Percent", "setting": "T-47D", "value": 84.40, "unit": "%"}, {"measurement": "Growth Percent", "setting": "MDA-MB-468", "value": 102.12, "unit": "%"}]}
